Measured values reported in US5514648A, “Fungicidally active compounds” (priority 1990, dated 1996).
Where a SMILES comes first, the peptide text is derived from it. [ ]: non-standard residue; d: D form. NMeI = CC[C@H](C)[C@H](NC)C(=O)O; NMeD = CN[C@@H](CC(=O)O)C(=O)O; NMeV = CN[C@H](C(=O)O)C(C)C; Pip = O=C(O)[C@@H]1CCCCN1; dLac = C[C@@H](O)C(=O)O

Legend:
Ascomycetous species = experiment: Fungicidal activity, mycelial growth on potato dextrose agar; type: cell-based, Ascomycetes; conditions: 25 to 0.0016 μg a.i. per ml agar
Experimental: (§1) Experiments were carried out to determine the potency of the compound of formula IV towards various fungi. The active ingredient was dissolved in 60% ethanol and added to cooled potato dextrose agar to give final concentrations of 25, 5, 1, 0.2, 0.04 and 0.0016 μg a.i. per ml agar, respectively. Control dishes contained no active ingredient.
(§2) 10 ml Agar was poured into 9 cm petri dishes and each concentration was inoculated with actively growing mycelium of the fungal isolates tested for. The dishes were incubated at the optimum temperature for growth of the isolates for 3 to 6 days after which time the growth was measured in mm and compared to the controls.
(§3) The test isolates covered a broad range of fungi within the Oomycetes, the Ascomycetes, the Basidiornycetes, the Deuterornycetes, and the Zygomycetes.

Deuterornycetous species = experiment: as above; type: cell-based, Deuterornycetes; conditions: 25 to 0.0016 μg a.i. per ml agar
Experimental: as §1, §2, §3

A. pisi = experiment: as above; type: cell-based, Ascochyta pisi; conditions: in as low concentrations as 0.0016 μg/ml, 3 to 6 days
Experimental: as §1, §2, §3

A. fumigatus = experiment: as above; type: cell-based, Aspergillus fumigatus; conditions: in as low concentrations as 0.0016 μg/ml, 3 to 6 days
Experimental: as §1, §2, §3

S. sclerotiorum = experiment: as above; type: cell-based, Sclerotinia sclerotiorum; conditions: in as low concentrations as 0.0016 μg/ml, 3 to 6 days
Experimental: as §1, §2, §3

[1] = Toxicology IC50, Chemiluminescent; conditions: estimated
Experimental: Based on these tests the IC50 values for BK 202 were estimated as: Chemiluminescent >10 μg/ml

[2] = Temperature and pH stability (HPLC); type: physicochemical; conditions: buffer, 16 hours
Experimental: Procedure: The compound BK202 was solubilized in buffer at the pHs indicated in FIG. 1, and then placed at 25°-55° C. for 16 hours. The buffers used were phosphate-citrate (T. C. McIlvaine, J. Biol. Chem. 49,183(1921), in the pH range 2.5-7 and from pH 7-9.5 is used TRIS 0.05 M. After 16 hours, the samples were filtered on a membrane filter 0.45 μm, and then analyzed by the HPLC method.
However, this may reside in experimental error.
Column: Spherisorb Hexyl 5 μm, 140 mm×4.6 mm
Eluent: 55% Acetonitrile +0.1% Trifluor acetic Acid
Retention time: ca. 6.3 minutes

A. alternata = experiment: Fungicidal activity, mycelial growth on potato dextrose agar; type: cell-based, Alternaria alternata; conditions: 25 to 0.0016 μg a.i. per ml agar, 3 to 6 days
Experimental: as §1, §2, §3

Toxicology IC50, ATP = conditions: estimated
Experimental: Based on these tests the IC50 values for BK 202 were estimated as: ATP >10 μg/ml;

Monilinia fructigena = experiment: Activity against Monilinia fructigena on apples (Golden Delicious); type: in vivo; conditions: for number of infected wounds (maximum 20): 5 days, 0 mg ai/l gives 20
Experimental: Apples were surface sterilized, each punctured 5 times with a nail 2.1 mm in diameter, dipped in suspensions containing 0, 0.5, 5, 50, and 500 mg a.i. per 1. The active ingredient was (i) BK 202, (ii) benomyI(BENLATE®), (iii) iprodione(ROVRAL®). Four apples were punctured and treated with each concentration of the three pesticides giving a total of 20 wounds per concentration. The fruits were placed in plastic containers in rows with the wounds facing upwards. After 24 hours, the wounded areas were sprayed with a suspension of Monilinia fructigena containing 1×10^5 spores per ml. The containers were then covered with polyethylene bags and kept at room temperature (approximately22° C.).
After 5 days the effects were assessed by counting the number of infected wounds (maximum 20 infected wounds per treatment).

C. beticola = experiment: Fungicidal activity, mycelial growth on potato dextrose agar; type: cell-based, Cercospora beticola; conditions: 25 to 0.0016 μg a.i. per ml agar, 3 to 6 days
Experimental: as §1, §2, §3

plants = experiment: Phytotoxic activity on plants; type: in vivo; conditions: at the concentrations used in Examples 1 to 7
Zygomycetous species = experiment: Fungicidal activity, mycelial growth on potato dextrose agar; type: cell-based, Zygomycetes; conditions: 25 to 0.0016 μg a.i. per ml agar
Experimental: as §1, §2, §3

P. teres = experiment: as above; type: cell-based, Pyrenophora teres; conditions: in as low concentrations as 0.0016 μg/ml, 3 to 6 days
Experimental: as §1, §2, §3

Oornycetous species = experiment: as above; type: cell-based, Oomycetes; conditions: 25 to 0.0016 μg a.i. per ml agar
Experimental: as §1, §2, §3

Botrytis cinerea = experiment: Field trial, Botrytis cinerea on strawberries (Senga-Sengana); type: in vivo; conditions: 100, 300, and 900 g a.i./ha, four sprayings
From the text: Field trial performed in Funen, Denmark, in accordance with the EPPO guidelines (Guideline for the Biological Evaluation of Fungicities. Botrytis cinerea on Strawberries). The plot size was 20 m^2 and three replicates were used. The active compound was used in a test formulation containing approximately 10% active ingredient (a.i.). Three concentrations of active compound were applied: 100, 300, and 900 g a.i./ha. The spraying volume was 1200 l/ha. The strawberries were sprayed at the following growth stages: T1, onset of flowering; T2 : 10% flowering; T3, 50% flowering; and T4, 80% flowering. The commercial fungicide ROVRAL® was used as standard reference. The assessment was performed by counting and weighing healthy and infected strawberries, respectively.

M. fructigena = experiment: Fungicidal activity, mycelial growth on potato dextrose agar; type: cell-based, Monilinia fructigena; conditions: in as low concentrations as 0.0016 μg/ml, 3 to 6 days
Experimental: as §1, §2, §3

F. lycopersici = experiment: as above; type: cell-based, Fusarium lycopersici; conditions: 25 to 0.0016 μg a.i. per ml agar, 3 to 6 days
Experimental: as §1, §2, §3

Ames spot tests = type: cell-based; conditions: crystalline compound
From the text: (§4) The toxicity of BK 202 was investigated in the following tests using the compound of formula IV in crystaline form: […]
(§5) Ames spot tests and in vitro testing of dermal irritation (Skintex®).

P. sorghina = experiment: Fungicidal activity, mycelial growth on potato dextrose agar; type: cell-based, Phoma sorghina; conditions: 25 to 0.0016 μg a.i. per ml agar, 3 to 6 days
Experimental: as §1, §2, §3

[3] = in vitro testing of dermal irritation (Skintex)
From the text: as §4, §5

P. digitatum = experiment: Fungicidal activity, mycelial growth on potato dextrose agar; type: cell-based, Penicillium digitatum; conditions: in as low concentrations as 0.0016 μg/ml, 3 to 6 days
Experimental: as §1, §2, §3

SMILES: CC[C@H](C)[C@H]1C(=O)NCC(=O)N(C)[C@@H](C(C)C)C(=O)N[C@@H](Cc2ccc(OC)cc2)C(=O)O[C@H](C)C(=O)N2CCCC[C@H]2C(=O)N(C)[C@@H](C(C)C)C(=O)N[C@@H](C(C)C)C(=O)N(C)[C@@H](CC(=O)O)C(=O)N(C)[C@@H](C(C)C)C(=O)N1C [BK 202, cyclo- Pec-MeVal-Val-MeAsp-MeVal-MeIle-Gly-MeVal-TyrOMe-D-Lact!] (cyclo(G[NMeV]Y(Me)[dLac][Pip][NMeV]V[NMeD][NMeV][NMeI]))
- fungicidal activity (Ascomycetous species): most active
- fungicidal activity (Deuterornycetous species): most active
- inhibition of growth (A. pisi): very strong
- inhibition of growth (A. fumigatus): very strong
- inhibition of growth (S. sclerotiorum): very strong
- IC50, Chemiluminescent [1]: > 10 µg/mL
- stability at pH values above 8 ([2]; 25°-55° C.): decreases rapidly
- stability optimum (pH) ([2]; 25°-55° C., stability seems independent of temperature): ~7
- stability at pH values below 7 ([2]; except at 25° C., where the decrease seems rapid (possibly experimental error)): decreases slowly
- inhibition of growth (A. alternata): weaker
- IC50, ATP (Toxicology IC50, ATP): > 10 µg/mL
- number of infected wounds (maximum 20) (Monilinia fructigena; 0.5 mg ai/l dip): 18
- number of infected wounds (maximum 20) (Monilinia fructigena; 5.0 mg ai/l dip): 14
- number of infected wounds (maximum 20) (Monilinia fructigena; 50 mg ai/l dip): 7
- number of infected wounds (maximum 20) (Monilinia fructigena; 500 mg ai/l dip): 1
- activity towards M. fructigena in comparison to the two commercial fungicides tested (Monilinia fructigena; versus BENLATE® and ROVRAL®): superior
- inhibition of growth (C. beticola): weaker
- phytotoxic activity (plants): no phytotoxic activity has been observed
- fungicidal activity (Zygomycetous species): Only weak activity
- inhibition of growth (P. teres): very strong
- fungicidal activity (Oornycetous species): practically no activity
- fungicidal effect (degree of infection, FIG. 8) compared to ROVRAL® (Botrytis cinerea): superior
- inhibition of growth (M. fructigena): very strong
- inhibition of growth (F. lycopersici): weaker
- Ames spot tests (Ames spot tests): no indication of toxicity
- inhibition of growth (P. sorghina): weaker
- dermal irritation score, Skintex® test [3]: lowest possible irritation
- inhibition of growth (P. digitatum): very strong
